Reference: patent US20250152743A1, “SYNPOPTOSIS CIRCUITS FOR PROGRAMMABLE CELL DEATH CONTROL” (California Institute of Technology, priority 2023, published 2025)
Entries after “also recorded” stand apart in the source; their conditions may differ.

How the values were obtained:
Assay type in all cases: cell-based, human
HEK cells [1] = assay: Q-VD-OPh on circuit-induced cell death, flow cytometry; conditions: Q-VD-OPh 30 μM
Method: Then, because naturally occurring cell death can be modulated by small-molecule compounds, the effect of Q-VD-OPh, a caspase inhibitor, on synpoptosis circuits was investigated (FIG. 2C). […] It was also asked whether cells treated with synpoptosis circuits stain positive for TO-PRO-3, a dye that enters apoptotic cells through pannexin channels and pyroptotic cells through permeabilized membranes.
On the day before transfection, HEK cells were seeded at a density of 0.3-0.6 million cells per well on a 12-well plate, 0.1-0.3 million cells per well on a 24-well plate, or 15,000-50,000 cells per well on a 96-well plate. The cells were allowed to attach to the plate overnight, for at least 8 hours. On the day of transfection, we treated the cells with purified DNA plasmids encoding circuit components. In addition to plasmids encoding circuit components, we often included a plasmid encoding a fluorescent co-transfection marker, at roughly 50 ng DNA per well on a 24-well plate. Given the different number of molecular components in each synthetic circuit and their various relative ratios, the total amount of DNA ranged from 50 to 1 μg per well on a 24-well plate, and was scaled by 0.5 or 4 when other 12-well or 96-well plates were used, respectively. […]

HEK293FT cells [2] = assay: Polytransfection of input proteases and caspase cleavage-site variants, Annexin staining; conditions: order, decreasing: ENLFFQQ; ENLFFQY; ENLYFQS+TEVP-cleavable DHFR; ENLFFQS~ENLYFQY~ENLYFQQ; ENLYFQS; both TEVP and TVMVP cleavage site
Excerpt: The cleavage efficiency of proteases is known to depend on corresponding accessible cleavage sites. Mutations to native protease cleavage sites can slow (i) the recruitment of substrates to the protease active site, (ii) catalytic reaction steps, or (iii) the release of the substrate from the protease. As described herein, this property to modulate cell death executioner activation thresholds. Specifically, we surveyed the following constructs with modified protease cleavage sites across a wide range of possible cell death executioner and input protease expression regimes:
Caspase 3 with ENLYFQS TEVP protease cleavage site (native protease cleavage site is ENLYFQG/S, SEQ ID NOs: 1-2), which serves as a control; Caspase 3 with ENLYFQY (SEQ ID NO: 3) TEVP protease cleavage site; Caspase 3 with ENLYFQQ (SEQ ID NO: 4) TEVP protease cleavage site; Caspase 3 with ENLFFQS (SEQ ID NO: 5) TEVP protease cleavage site; Caspase 3 with ENLFFQY (SEQ ID NO: 6) TEVP protease cleavage site; Caspase 3 with ENLFFQQ (SEQ ID NO: 7) TEVP protease cleavage site; Caspase 3 with both native TEVP and TVMVP cleavage sites separated by linker; Caspase 3 with native TEVP cleavage site fused to C-terminal TEVP-cleavable DHFR degron.
To evaluate how the mutated protease cleavage sites affect Caspase 3 activation, we polytransfected (i) input proteases (P3/P4-zipper reconstituted TEVP as a positive control, split TEVP without reconstitution domain as a negative control, or NeoR to evaluate caspase baseline activity; all with IRES-BFP to enable expression tracking) and (ii) output caspase (caspase+co-transfected GFP for expression tracking) in HEK293FT cells. Annexin staining as described above in Example 1 was used to quantify cell death.

HEK293FT cells [3] = assay: Co-transfection time course, cell death every 24 h over 4 days; conditions: P3/P4-zipper reconstituted TEVP
Method: Moreover, it was evaluated if some of these mutations affect the maximal caspase activation accessible and the time dependency between caspase activation and cell death by co-transfecting (i) input proteases (P3/P4-zipper reconstituted TEVP as a positive control, split TEVP without reconstitution domain as a negative control, or NeoR to evaluate caspase baseline activity; all with IRES-BFP to enable expression tracking) and (ii) output caspase (“ENLYFQS” (SEQ ID NO: 2)/“ENLYFQQ” (SEQ ID NO: 4)/“ENLFFQQ” (SEQ ID NO: 7)+co-transfected GFP for expression tracking) in HEK293FT cells and measuring cell death every 24 h over the course of 4 days.

HEK cells [4] = assay: Transient DNA transfection of HEK cells, Annexin/Sytox staining, flow cytometry; conditions: tev, tvmv and hcv sites
Method: HEK cells were transiently co-transfected with DNA encoding the circuits, often along with Cherry, a fluorescent protein marker, and cells were analyzed by flow cytometry 16 to 24 hours later. To quantify cell death, the cells were strained with Annexin, Sytox, or both. Annexin stains apoptotic cells by binding to phosphatidylserine exposed on the outer leaflet, and pyroptotic cells by binding to phosphatidylserine in the inner leaflet after membrane permeabilization. In contrast, Sytox, a membrane-impermeable dye, primarily stains pyroptotic cells. Therefore, apoptotic cells are typically Annexin-high and Sytox-low, while pyroptotic cells are Annexin-high and Sytox-high (FIG. 7B). For simplicity, in experiments involving only a single death mode, a single relevant dye was often used. To focus on cells influenced by the circuits, the fraction of Annexin- or Sytox-positive cells was calculated after gating on the fluorescent co-transfection marker (FIG. 7C).
On the day before transfection, HEK cells were seeded at a density of 0.3-0.6 million cells per well on a 12-well plate, 0.1-0.3 million cells per well on a 24-well plate, or 15,000-50,000 cells per well on a 96-well plate. The cells were allowed to attach to the plate overnight, for at least 8 hours. On the day of transfection, we treated the cells with purified DNA plasmids encoding circuit components. […]

In the case of `CC(C)[C@H](NC(=O)c1ccc2ccccc2n1)C(=O)N[C@@H](CC(=O)O)C(=O)COc1c(F)cccc1F` [Q-VD-OPh, Quinoline-Val-Asp-Difluorophenoxymethylketone], the “apoptosis induced by the caspase-3 circuit” value (HEK cells [1]) is reported as “suppressed circuit-induced apoptosis; also recorded: markedly attenuated apoptosis” and the “pyroptosis mediated by the GSDMA circuit” value (HEK cells [1]) is reported as “did not affect pyroptosis”.
“ENLFFQQ: caspase 3 with modified TEVP cleavage site (left off: small tags and cut ends)” was tested, and the “input/output expression required for caspase activation (activation threshold)” value (from here on “input/output expression required”) (HEK293FT cells [2]) was “requires the highest input/output expression for activation” and the “maximal caspase activation / maximal fraction of dead cells” value (HEK293FT cells [3]) was “reduces the maximum activation to a degree where the complete killing of the cell population is not possible anymore”.
In the case of “ENLFFQY: caspase 3 with modified TEVP cleavage site (left off: small tags and cut ends)”, the “input/output expression required” value (HEK293FT cells [2]) is reported as “in decreasing order”.
“ENLYFQQ: caspase 3 with modified TEVP cleavage site (left off: small tags and cut ends)” was tested, and the “input/output expression required” value (HEK293FT cells [2]) was “in decreasing order” and the “maximal caspase activation / maximal fraction of dead cells” value (HEK293FT cells [3]) was “comparable maximal fraction of dead cells”.
For “ENLYFQY: caspase 3 with modified TEVP cleavage site (left off: small tags and cut ends)”, the “input/output expression required” value (HEK293FT cells [2]) was “in decreasing order”.
For “hepatitis C virus protease [HCVP, reference compound]”, the “activation of cognate engineered GSDMs containing the cleavage sites” value (HEK cells [4]) was “orthogonally activated their cognate engineered GSDMs”.
